27 molecules from patent US20260224536A1, “ARYL HETEROCYCLIC KV1.3 INHIBITOR, PREPARATION METHOD THEREFOR, AND USE THEREOF” (SHANGHAI SHENSHI WISE TECHNOLOGY CO., LTD., priority 2022, published 2026) can be followed below.

pIC50: −log10 of the molar value.

The experiment concerns the target Kv1.3 potassium channel (Homo sapiens, UniProt P22001). Nature of the experiment: Whole-cell patch-clamp assay for inhibitory activity against Kv1.3 (peak current). It counts as cell-based. The note with it: HEK293 cells stably expressing Kv1.3, patch-clamp. From the text:
The voltage stimulation protocol for recording whole-cell Kv1.X potassium currents via patch-clamp was as follows. After formation of a whole-cell seal, the cell membrane voltage was clamped at −80 mV, and then stepped to +40 mV for 500 ms. […] The test data were acquired by EPC-10 amplifier (HEKA) and stored in the PatchMaster (HEKA) software. Recording electrodes were drawn from capillary glass tubes using a microelectrode puller. Under an inverted microscope, the recording electrode was brought into contact with the cell surface by manipulating a microelectrode manipulator. Negative-pressure suction was applied to form a GΩ seal. After formation of the […], a rapid capacitance compensation was given. The application of negative pressure was continued to rupture the cell membrane, forming a whole-cell recording mode. Then, a slow capacitance compensation was given, and the membrane capacitance and series resistance were recorded. No current leakage compensation was provided. Once the whole-cell recorded Kv1.X current stabilized, drug administration was started. Each drug concentration was allowed to act for 5 min (or until the current reached a steady state) before the next concentration was tested. Multiple concentrations were tested for each test compound. The cover glass plated with the cells was placed in a recording bath of the inverted microscope. The test compound and the compound-free extracellular fluid were allowed to sequentially flow through the recording bath from low concentrations to high concentrations using a gravity perfusion method, thus acting on the cells, and liquid exchange was performed using a vacuum pump during recording. For each cell, the current detected in the compound-free extracellular liquid was used as its own control group. The test was independently repeated three times using at least three cells per concentration. All electrophysiological experiments were performed at room temperature. […] First, the peak current after the action of each drug concentration and the peak current of the blank control were standardized and then the inhibition rate corresponding to each drug concentration was calculated Subsequently, the mean, standard deviation (SD), and standard error (SE) were calculated for the inhibition rate corresponding to each concentration. Using the above equation, the IC50 value for each compound was calculated, and the dose-dependent effect was subjected to non-linear fitting, where IC50 is the half maximal inhibitory concentration. The IC50 calculation and the curve fitting were performed using the GraphPad Prism software.
For orientation: In patch-clamp work, channel activity is measured electrically.

A word on the pIC50: it is −log10 of the IC50, conventionally taken in molar units. Low values mean a high IC50, high ones a low IC50.

Kv1.3 potassium channel, sequence (P22001 whole entry): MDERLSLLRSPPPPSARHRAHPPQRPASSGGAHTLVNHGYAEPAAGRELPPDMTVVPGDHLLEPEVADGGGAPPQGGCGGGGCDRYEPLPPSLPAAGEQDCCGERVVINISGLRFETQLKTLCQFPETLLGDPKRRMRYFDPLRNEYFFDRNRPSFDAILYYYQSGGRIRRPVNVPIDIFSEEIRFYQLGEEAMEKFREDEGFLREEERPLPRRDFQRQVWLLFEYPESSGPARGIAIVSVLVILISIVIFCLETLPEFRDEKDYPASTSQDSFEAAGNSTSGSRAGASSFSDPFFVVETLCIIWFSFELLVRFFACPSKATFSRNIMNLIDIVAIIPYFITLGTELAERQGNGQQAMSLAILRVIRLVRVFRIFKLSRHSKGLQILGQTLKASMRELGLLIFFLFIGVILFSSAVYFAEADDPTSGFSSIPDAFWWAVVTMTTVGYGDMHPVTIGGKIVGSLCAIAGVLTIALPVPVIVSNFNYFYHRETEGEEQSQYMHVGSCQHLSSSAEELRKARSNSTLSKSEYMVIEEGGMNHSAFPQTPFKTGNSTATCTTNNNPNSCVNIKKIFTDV

On to `Oc1ccc(Br)c(Br)c1C1Cc2nnc([C@@H]3CCOC3)n2C1` (stereo partly drawn) [Example 119, 3,4-Dibromo-2-(3-((S)-tetrahydrofuran-3-yl)-6,7-dihydro-5H-pyrrolo[2,1-c][1,2,4]triazol-6-yl)phenol], for which the pIC50 is 8.18. `Oc1ccc(Cl)c(Cl)c1[C@@H]1Cc2nnc([C@@H]3CCNC3)n2C1` [Example 48, 3,4-dichloro-2-((S)-3-((R)-pyrrolidin-3-yl)-6,7-dihydro-5H-pyrrolo[2,1-c][1,2,4]triazol-6-yl)phenol] had a pIC50 of 8.07. Then `Oc1ccc(Cl)c(Cl)c1[C@@H]1Cc2nnc([C@H]3CCOC3)n2C1` [Example 55, 3,4-dichloro-2-((S)-3-((R)-tetrahydrofuran-3-yl)-6,7-dihydro-5H-pyrrolo[2,1-c][1,2,4]triazol-6-yl)phenol], with 7.92. Consider `Oc1ccc(Cl)c(Cl)c1[C@@H]1Cc2nnc([C@@]34COCC3C4)n2C1` (stereo partly drawn) [Example 72, 2-((6S)-3-((1S)-3-Oxabicyclo[3.1.0]hexan-1-yl)-6,7-dihydro-5H-pyrrolo[2,1-c][1,2,4]triazol-6-yl)-3,4-dichlorophenol], for which the pIC50 was 7.41. As to `CCc1nnc2n1C[C@H](c1c(O)ccc(Cl)c1Cl)C2` [Example 34, (S)-3,4-Dichloro-2-(3-ethyl-6,7-dihydro-5H-pyrrolo[2,1-c][1,2,4]triazol-6-yl)phenol], the pIC50 was 8.01. This pIC50 is 0.60 log units higher than that of the molecule before. On to `Oc1ccc(Cl)c(Cl)c1C1Cc2nnc(C3CCN(C4CCOCC4)CC3)n2C1` (stereo not drawn) [Example 22, 3,4-Dichloro-2-(3-(1-(tetrahydro-2H-pyran-4-yl)piperidin-4-yl)-6,7-dihydro-5H-pyrrolo[2,1-c][1,2,4]triazol-6-yl)phenol], for which the pIC50 was 7.87. In turn, `Oc1ccc(Cl)c(Cl)c1[C@@H]1Cc2nnc(CC(F)(F)F)n2C1` [Example 87, (S)-3,4-Dichloro-2-(3-(2,2,2-trifluoroethyl)-6,7-dihydro-5H-pyrrolo[2,1-c][1,2,4]triazol-6-yl)phenol] gave a pIC50 of 7.68. Consider `Cn1cc(-c2nnc3n2C[C@H](c2c(O)ccc(Cl)c2Cl)C3)ccc1=O` [Example 38, (S)-5-(6-(2,3-Dichloro-6-hydroxyphenyl)-6,7-dihydro-5H-pyrrolo[2,1-c][1,2,4]triazol-3-yl)-1-methylpyridin-2(1H)-one], for which the pIC50 was 7.37. Molecule `Oc1ccc(Cl)c(Cl)c1[C@@H]1Cc2nnc(C3CCCOC3)n2C1` (single isomer, unassigned) [Example 69] gave a pIC50 of 7.28.

In turn, `CC(C)N1CCC(c2nnc3n2C[C@H](c2c(O)ccc(Cl)c2Cl)C3)CC1` [Example 36, (S)-3,4-Dichloro-2-(3-(1-isopropylpiperidin-4-yl)-6,7-dihydro-5H-pyrrolo[2,1-c][1,2,4]triazol-6-yl)phenol] had a pIC50 of 8.17. Then `CC(C)N1CC[C@@H](c2nnc3n2C[C@H](c2c(O)ccc(Cl)c2Cl)C3)C1` [Example 80, 3,4-Dichloro-2-((S)-3-((R)-1-isopropylpyrrolidin-3-yl)-6,7-dihydro-5H-pyrrolo[2,1-c][1,2,4]triazol-6-yl)phenol], with 8.67. The molecule `Oc1ccc(Cl)c(Cl)c1[C@@H]1Cc2nnc(C3CNC3)n2C1` [Example 45, (S)-2-(3-(Azetidin-3-yl)-6,7-dihydro-5H-pyrrolo[2,1-c][1,2,4]triazol-6-yl)-3,4-dichlorophenol] showed a pIC50 of 8.82. The molecule `CC(C)N1CCC(N2CC[C@@H](c3nnc4n3C[C@H](c3c(O)ccc(Cl)c3Cl)C4)C2)CC1` [Example 82, 3,4-Dichloro-2-((S)-3-((R)-1-(1-isopropylpiperidin-4-yl)pyrrolidin-3-yl)-6,7-dihydro-5H-pyrrolo[2,1-c][1,2,4]triazol-6-yl)phenol] had a pIC50 of 8.30. Molecule `CCn1ncc2c1CC(c1c(O)ccc(Cl)c1Cl)C2` (single isomer, unassigned) [Example 118] had a pIC50 of 7.84.

As for `CC(C)N1CCC(n2nc3n(c2=O)C[C@H](c2c(O)ccc(Cl)c2Cl)C3)CC1` [Example 103, (S)-6-(2,3-dichloro-6-hydroxyphenyl)-2-(1-isopropylpiperidin-4-yl)-2,5,6,7-tetrahydro-3H-pyrrolo[2,1-c][1,2,4]triazol-3-one], the pIC50 is 8.11. The result for `O=C(c1nnc2n1CC(c1c(O)ccc(Cl)c1Cl)C2)N1CCC(O)C1` (stereo not drawn) [Example 12, (6-(2,3-Dichloro-6-hydroxyphenyl)-6,7-dihydro-5H-pyrrolo[2,1-c][1,2,4]triazol-3-yl)(3-hydroxypyrrolidin-1-yl)methanone] reads 7.51; that for `CC(C)N1CCC(Cc2nnc3n2CC(c2c(O)ccc(Cl)c2Cl)C3)CC1` (stereo not drawn) [Example 18, 3,4-Dichloro-2-(3-((1-isopropylpiperidin-4-yl)methyl)-6,7-dihydro-5H-pyrrolo[2,1-c][1,2,4]triazol-6-yl)phenol], 8.24; that for `Oc1ccc(Cl)c(Cl)c1C1Cc2nnc(-c3ccc4[nH]ncc4c3)n2C1` (stereo not drawn) [Example 7, 2-(3-(1H-Indazol-5-yl)-6,7-dihydro-5H-pyrrolo[2,1-c][1,2,4]triazol-6-yl)-3,4-dichlorophenol], 7.92. On to `CC1(C)CC(c2nnc3n2CC(c2c(O)ccc(Cl)c2Cl)C3)CCN1` (stereo not drawn) [Example 89, 3,4-Dichloro-2-(3-(2,2-dimethylpiperidin-4-yl)-6,7-dihydro-5H-pyrrolo[2,1-c][1,2,4]triazol-6-yl)phenol], for which the pIC50 was 8.08. `CC(C)N1CCC(c2cnc3n2CC(c2c(O)ccc(Cl)c2Cl)C3)CC1` (single isomer, unassigned) [Example 94] gave a pIC50 of 8.22. As for `CC(=O)N1CC[C@@H](c2nnc3n2C[C@H](c2c(O)ccc(Cl)c2Cl)C3)C1` [Example 81, 1-((R)-3-((S)-6-(2,3-Dichloro-6-hydroxyphenyl)-6,7-dihydro-5H-pyrrolo[2,1-c][1,2,4]triazol-3-yl)pyrrolidin-1-yl)ethan-1-one], the pIC50 was 7.95. `Oc1ccc(Cl)c(Cl)c1C1Cc2nnc(N3CCOCC3)n2C1` (stereo not drawn) [Example 101, 3,4-Dichloro-2-(3-morpholino-6,7-dihydro-5H-pyrrolo[2,1-c][1,2,4]triazol-6-yl)phenol] showed a pIC50 of 8.01. This pIC50 and that of the molecule before are within 0.2 log units of each other. For the molecule `Oc1ccc(Cl)c(Cl)c1C1Cc2nnc(C3CCCCC3)n2C1` (stereo not drawn) [Example 5, 3,4-Dichloro-2-(3-cyclohexyl-6,7-dihydro-5H-pyrrolo[2,1-c][1,2,4]triazol-6-yl)phenol], the pIC50 is 7.41. This pIC50 is 0.60 log units lower than that of the molecule before.

The molecule `CCc1cnc2n1C[C@@H](c1c(O)ccc(Cl)c1Cl)C2` [Example 93, (R)-3,4-dichloro-2-(3-ethyl-6,7-dihydro-5H-pyrrolo[1,2-a]imidazol-6-yl)phenol] gave a pIC50 of 8.51. The result for `Oc1ccc(Cl)c(Cl)c1[C@@H]1Cc2nnc(C34COC(C3)C4)n2C1` [Example 66, (S)-2-(3-(2-Oxabicyclo[2.1.1]hexan-4-yl)-6,7-dihydro-5H-pyrrolo[2,1-c][1,2,4]triazol-6-yl)-3,4-dichlorophenol] reads 7.48; that for `COC(=O)N1CC[C@@H](c2nnc3n2C[C@H](c2c(O)ccc(Cl)c2Cl)C3)C1` [Example 51, methyl (R)-3-((S)-6-(2,3-dichloro-6-hydroxyphenyl)-6,7-dihydro-5H-pyrrolo[2,1-c][1,2,4]triazol-3-yl)pyrrolidine-1-carboxylate], 8.14; that for `Cn1cc(-c2nnc3n2C[C@H](c2c(O)ccc(Cl)c2Cl)C3)cn1` [Example 40, (S)-3,4-Dichloro-2-(3-(1-methyl-1H-pyrazol-4-yl)-6,7-dihydro-5H-pyrrolo[2,1-c][1,2,4]triazol-6-yl)phenol], 7.97.
